Assay results taken from US8703197B2, “Branched polyamines for delivery of biologically active materials” (International Business Machines Corporation, priority 2012, dated 2014).

Test system: HeLa cells
Assay: MTT cytotoxicity of polymer/gene complexes in HeLa cells
Type: cell-based, human
Procedure: The cytotoxicity of the modified bPEI-25/gene complexes and modified bPEI-25/siRNA complexes was studied using the standard MTT assay protocol on HepG2, HeLa and SK-OV-3 cells. The GFP plasmid was used for complex formation and treatment of HepG2 and HeLa cells, while the luciferase plasmid was used for complex formation and treatment of SK-OV-3 cells.
HepG2, HeLa and SK-OV-3 cells were seeded onto 96-well plates at densities of 10000 cells, 5000 and 16000 cells per well, respectively, and allowed to grow to 60% to 70% confluency before treatment. Polymer/gene or polymer/siRNA complexes at various N/P ratios were prepared in water as described above. The cells in each well were then incubated with growth medium comprising 10 microliters of polymer/nucleic acid complexes and 100 microliters of fresh medium for 4 hours at 37° C. Following incubation, the medium was replaced with fresh growth medium and incubated further for 68 hours. […] A 100 microliter aliquot from each well was then transferred to a new 96-well plate for determination of absorbance using a microplate spectrophotometer at wavelengths of 550 nm and 690 nm. Relative cell viability was expressed as [A550−A690)sample/(A550−A690)control]×100%. Data were expressed as mean±standard deviations of at least eight replicates per N/P ratio.

## Branched Polyethylenimine [bPEI-25]
  Maximum N/P ratio for Cell Viability ≧80%, HeLa Max N/P: 20
